Reference: the NIST ThermoML archive (doi:10.1021/acs.jced.6b00210)

Experiment: xn = mol fraction of the nth substance listed
Conditions: 100 kPa, Liquid; for viscosity: Concentric cylinders viscometry; for mass density: Vibrating tube method

Nc1ccccc1 [aniline] + CCC(C)O
Conditions	mass density [kg/m3]	viscosity [mPa·s]
293.15 K, x1 = 0.0813	825	3.32
293.15 K, x1 = 0.16	842.5	3.07
293.15 K, x1 = 0.24	860.1	2.88
293.15 K, x1 = 0.3502	884.2	2.71
293.15 K, x1 = 0.44	903.7	2.66
293.15 K, x1 = 0.5601	929.6	2.72
293.15 K, x1 = 0.65	948.8	2.81
293.15 K, x1 = 0.74	967.8	3
293.15 K, x1 = 0.8499	990.8	3.4
293.15 K, x1 = 0.94	1009.4	3.89
293.15 K, x1 = 1	1021.7	4.37
298.15 K, x1 = 0.0813	820.7	2.77
298.15 K, x1 = 0.16	838.1	2.55
298.15 K, x1 = 0.24	855.7	2.39
298.15 K, x1 = 0.3502	879.7	2.25
298.15 K, x1 = 0.44	899.2	2.21
298.15 K, x1 = 0.5601	924.9	2.24
298.15 K, x1 = 0.65	944.1	2.33
298.15 K, x1 = 0.74	963.1	2.52
298.15 K, x1 = 0.8499	986.2	2.92
298.15 K, x1 = 0.94	1004.9	3.38
298.15 K, x1 = 1	1017.4	3.8
303.15 K, x1 = 0.0813	816.3	2.3
303.15 K, x1 = 0.16	833.6	2.12
303.15 K, x1 = 0.24	851.1	1.97
303.15 K, x1 = 0.3502	875.1	1.83
303.15 K, x1 = 0.44	894.5	1.78
303.15 K, x1 = 0.5601	920.4	1.77
303.15 K, x1 = 0.65	939.6	1.83
303.15 K, x1 = 0.74	958.6	1.97
303.15 K, x1 = 0.8499	981.8	2.32
303.15 K, x1 = 0.94	1000.6	2.77
303.15 K, x1 = 1	1013.2	3.13
308.15 K, x1 = 0.0813	811.9	1.94
308.15 K, x1 = 0.16	829.1	1.81
308.15 K, x1 = 0.24	846.6	1.69
308.15 K, x1 = 0.3502	870.5	1.56
308.15 K, x1 = 0.44	890	1.51
308.15 K, x1 = 0.5601	915.8	1.5
308.15 K, x1 = 0.65	935	1.55
308.15 K, x1 = 0.74	954.2	1.69
308.15 K, x1 = 0.8499	977.4	2.01
308.15 K, x1 = 0.94	996.4	2.43
308.15 K, x1 = 1	1009	2.75
313.15 K, x1 = 0.0813	807.5	1.65
313.15 K, x1 = 0.16	824.7	1.52
313.15 K, x1 = 0.24	842.1	1.416
313.15 K, x1 = 0.3502	865.9	1.33
313.15 K, x1 = 0.44	885.3	1.29
313.15 K, x1 = 0.5601	911.2	1.3
313.15 K, x1 = 0.65	930.5	1.35
313.15 K, x1 = 0.74	949.6	1.49
313.15 K, x1 = 0.8499	973	1.78
313.15 K, x1 = 0.94	992	2.14
313.15 K, x1 = 1	1004.7	2.43
318.15 K, x1 = 0.0813	802.9	1.42
318.15 K, x1 = 0.16	820	1.31
318.15 K, x1 = 0.24	837.3	1.21
318.15 K, x1 = 0.3502	861.1	1.13
318.15 K, x1 = 0.44	880.5	1.11
318.15 K, x1 = 0.5601	906.4	1.13
318.15 K, x1 = 0.65	925.7	1.19
318.15 K, x1 = 0.74	945	1.31
318.15 K, x1 = 0.8499	968.5	1.58
318.15 K, x1 = 0.94	987.6	1.9
318.15 K, x1 = 1	1000.4	2.14
323.15 K, x1 = 0.0813	798.2	1.24
323.15 K, x1 = 0.16	815.2	1.15
323.15 K, x1 = 0.24	832.5	1.07
323.15 K, x1 = 0.3502	856.2	1
323.15 K, x1 = 0.44	875.5	0.99
323.15 K, x1 = 0.5601	901.3	1.014
323.15 K, x1 = 0.65	920.7	1.075
323.15 K, x1 = 0.74	940	1.189
323.15 K, x1 = 0.8499	963.5	1.46
323.15 K, x1 = 0.94	982.7	1.75
323.15 K, x1 = 1	995.5	1.96
